Entries after “also recorded” stand apart in the source; their conditions may differ.
How the values were obtained:
Assay type in all cases: cell-based
PBMCs = experiment: CXCL5 protein ELISA in culture supernatants of PBMCs treated with NECA +/- CPI-444; settings: PBMCs from two human donors; two days after anti-CD3/CD28 activation; DMSO vehicle control
Procedure: Expression of CXCL5 was determined by ELISA 2 days after activation.
FIGS. 2B and 2C show the response of PBMCs from two different donors to NECA+/−CPI-444 treatment. DMSO was used as vehicle control. […] This control helps establish that the induction of CXCL5 is specific to signaling through adenosine receptors.
NECA activation of CXCL5 protein expression was evaluated. PBMCs were harvested from two different human donors. […] CPI-444 (Corvus Pharmaceuticals) is an antagonist of the adenosine A2A receptor. CXCL5 protein in the culture supernatants was evaluated by ELISA two days after activation. CXCL5 expression is activated by NECA. […] This establishes that the induction of CXCL5 is specific to signaling through adenosine receptors.

[1] = test system: human peripheral blood mononuclear cells (PBMCs); experiment: RNA sequencing (RNA-Seq) of NECA-treated, anti-CD3/CD28-activated PBMCs
Procedure: RNA purified from normal, healthy human peripheral blood mononuclear cells (PBMCs) treated with 5′-N-ethylcarboxamidoadenosine (NECA) and activated with anti-CD3/CD28 antibody were analyzed by NanoString hybridization-based quantification (NanoString Technologies, Inc.). […] Each dot represents the expression level of a specific gene. Dot shade represents the concentration of NECA used and/or different PBMC donors. […] Data were confirmed by RNA sequencing (RNA-Seq).

[2] = test system: human peripheral blood mononuclear cells (PBMCs); experiment: NanoString mRNA quantification in NECA-treated, anti-CD3/CD28-activated PBMCs; settings: 0.1 μM, 1 μM, and/or 10 μM NECA vs vehicle-treated control
Procedure: RNA purified from normal, healthy human peripheral blood mononuclear cells (PBMCs) treated with 5′-N-ethylcarboxamidoadenosine (NECA) and activated with anti-CD3/CD28 antibody were analyzed by NanoString hybridization-based quantification (NanoString Technologies, Inc.). […] Each dot represents the expression level of a specific gene. Dot shade represents the concentration of NECA used and/or different PBMC donors.

CCNC(=O)[C@H]1O[C@@H](n2cnc3c(N)ncnc32)[C@H](O)[C@@H]1O [NECA, 5′-N-ethylcarboxamidoadenosine]
CXCL5 protein in culture supernatants (ELISA), effect of NECA (PBMCs): activated; also recorded: dose-dependent increase in CXCL5 | logFC CCL24 expression ([1]; Control (DMSO) vs 0.1 μm NECA): −1.068 | logFC CD93 expression ([1]; Control (DMSO) vs 0.1 μm NECA): 0.9975 | logFC CSF3 expression ([1]; Control (DMSO) vs 0.1 μm NECA): 1.603 | logFC CXCL2 expression ([1]; Control (DMSO) vs 0.1 μm NECA): 1.452 | logFC CXCL3 expression ([1]; Control (DMSO) vs 0.1 μm NECA): 1.694 | logFC CXCL5 expression ([1]; Control (DMSO) vs 0.1 μm NECA): 2.388 | logFC EHF expression ([1]; Control (DMSO) vs 0.1 μm NECA): −0.2753 | logFC EML6 expression ([1]; Control (DMSO) vs 0.1 μm NECA): 0.2117 | logFC EPB41L3 expression ([1]; Control (DMSO) vs 0.1 μm NECA): 1.183 | logFC FUT7 expression ([1]; Control (DMSO) vs 0.1 μm NECA): −0.2135 | logFC HAS1 expression ([1]; Control (DMSO) vs 0.1 μm NECA): 2.059 | logFC IL23A expression ([1]; Control (DMSO) vs 0.1 μm NECA): 0.7971 | logFC INHBA expression ([1]; Control (DMSO) vs 0.1 μm NECA): 0.5196 | logFC KLC4 expression ([1]; Control (DMSO) vs 0.1 μm NECA): 0.216 | logFC LAYN expression ([1]; Control (DMSO) vs 0.1 μm NECA): 0.4228 | logFC MRPL11 expression ([1]; Control (DMSO) vs 0.1 μm NECA): −0.19 | logFC MS4A7 expression ([1]; Control (DMSO) vs 0.1 μm NECA): 0.9319 | logFC NPR1 expression ([1]; Control (DMSO) vs 0.1 μm NECA): 0.7892 | logFC OST4 expression ([1]; Control (DMSO) vs 0.1 μm NECA): −0.2352 | logFC PADI2 expression ([1]; Control (DMSO) vs 0.1 μm NECA): 0.4802 | logFC PTGS2 expression ([1]; Control (DMSO) vs 0.1 μm NECA): 1.184 | logFC SLC7A7 expression ([1]; Control (DMSO) vs 0.1 μm NECA): 0.5935 | logFC SPON1 expression ([1]; Control (DMSO) vs 0.1 μm NECA): 0.3611 | logFC ST6GALNAC2 expression ([1]; Control (DMSO) vs 0.1 μm NECA): 0.5342 | logFC SYTL3 expression ([1]; Control (DMSO) vs 0.1 μm NECA): 0.2894 | logFC WDR83OS expression ([1]; Control (DMSO) vs 0.1 μm NECA): −0.2872 | logFC ZBTB18 expression ([1]; Control (DMSO) vs 0.1 μm NECA): 0.2431 | logFC CCDC60 expression ([1]; Control (DMSO) vs 1 μm NECA): 0.07658 | logFC CD93 expression ([1]; Control (DMSO) vs 1 μm NECA): 1.454 | logFC CSF3 expression ([1]; Control (DMSO) vs 1 μm NECA): 2.802 | logFC CXCL2 expression ([1]; Control (DMSO) vs 1 μm NECA): 2.361 | logFC CXCL3 expression ([1]; Control (DMSO) vs 1 μm NECA): 2.573 | logFC CXCL5 expression ([1]; Control (DMSO) vs 1 μm NECA): 3.451 | logFC EHF expression ([1]; Control (DMSO) vs 1 μm NECA): −0.2522 | logFC EMR3 expression ([1]; Control (DMSO) vs 1 μm NECA): 1.364 | logFC EPB41L3 expression ([1]; Control (DMSO) vs 1 μm NECA): 1.854 | logFC EREG expression ([1]; Control (DMSO) vs 1 μm NECA): 1.89 | logFC FUT7 expression ([1]; Control (DMSO) vs 1 μm NECA): −0.4158 | logFC GPR157 expression ([1]; Control (DMSO) vs 1 μm NECA): 0.9283 | logFC HAS1 expression ([1]; Control (DMSO) vs 1 μm NECA): 3.238 | logFC IL23A expression ([1]; Control (DMSO) vs 1 μm NECA): 1.363 | logFC IL24 expression ([1]; Control (DMSO) vs 1 μm NECA): 2.876 | logFC INHBA expression ([1]; Control (DMSO) vs 1 μm NECA): 0.9638 | logFC LAYN expression ([1]; Control (DMSO) vs 1 μm NECA): 0.5277 | logFC MS4A7 expression ([1]; Control (DMSO) vs 1 μm NECA): 1.535 | logFC OST4 expression ([1]; Control (DMSO) vs 1 μm NECA): −0.1747 | logFC PADI2 expression ([1]; Control (DMSO) vs 1 μm NECA): 0.7173 | logFC PID1 expression ([1]; Control (DMSO) vs 1 μm NECA): 1.729 | logFC PTGS2 expression ([1]; Control (DMSO) vs 1 μm NECA): 2.23 | logFC SLC7A7 expression ([1]; Control (DMSO) vs 1 μm NECA): 0.9514 | logFC SPON1 expression ([1]; Control (DMSO) vs 1 μm NECA): 0.5667 | logFC ST6GALNAC2 expression ([1]; Control (DMSO) vs 1 μm NECA): 0.8306 | logFC TGIF1 expression ([1]; Control (DMSO) vs 1 μm NECA): 0.4769 | logFC ZBTB18 expression ([1]; Control (DMSO) vs 1 μm NECA): 0.3385 | logFC CCNE1 expression ([1]; Control (DMSO) vs 10 μm NECA): −0.4518 | logFC CD93 expression ([1]; Control (DMSO) vs 10 μm NECA): 1.895 | logFC CD300E expression ([1]; Control (DMSO) vs 10 μm NECA): 1.71 | logFC CSF3 expression ([1]; Control (DMSO) vs 10 μm NECA): 3.508 | logFC CXCL2 expression ([1]; Control (DMSO) vs 10 μm NECA): 3.011 | logFC CXCL3 expression ([1]; Control (DMSO) vs 10 μm NECA): 3.106 | logFC CXCL5 expression ([1]; Control (DMSO) vs 10 μm NECA): 3.354 | logFC DFNA5 expression ([1]; Control (DMSO) vs 10 μm NECA): 0.6559 | logFC ECEL1 expression ([1]; Control (DMSO) vs 10 μm NECA): 0.6918 | logFC EPB41L3 expression ([1]; Control (DMSO) vs 10 μm NECA): 2 | logFC GALM expression ([1]; Control (DMSO) vs 10 μm NECA): −0.3189 | logFC GBP6 expression ([1]; Control (DMSO) vs 10 μm NECA): −0.8039 | logFC GPR157 expression ([1]; Control (DMSO) vs 10 μm NECA): 1.139 | logFC HAS1 expression ([1]; Control (DMSO) vs 10 μm NECA): 3.807 | logFC IL5 expression ([1]; Control (DMSO) vs 10 μm NECA): −0.6885 | logFC IL23A expression ([1]; Control (DMSO) vs 10 μm NECA): 1.332 | logFC INHBA expression ([1]; Control (DMSO) vs 10 μm NECA): 1.192 | logFC LAP3 expression ([1]; Control (DMSO) vs 10 μm NECA): −0.4286 | logFC LOC100505585 expression ([1]; Control (DMSO) vs 10 μm NECA): 0.6639 | logFC NID1 expression ([1]; Control (DMSO) vs 10 μm NECA): 1.087 | logFC PADI2 expression ([1]; Control (DMSO) vs 10 μm NECA): 0.9386 | logFC PID1 expression ([1]; Control (DMSO) vs 10 μm NECA): 2.124 | logFC PTGS2 expression ([1]; Control (DMSO) vs 10 μm NECA): 2.349 | logFC RHCG expression ([1]; Control (DMSO) vs 10 μm NECA): 0.5767 | logFC SLC7A7 expression ([1]; Control (DMSO) vs 10 μm NECA): 0.9134 | logFC SPON1 expression ([1]; Control (DMSO) vs 10 μm NECA): 0.568 | logFC ST6GALNAC2 expression ([1]; Control (DMSO) vs 10 μm NECA): 0.876 | logFC CD14 expression [2]: 0.4485 | logFC CD86 expression [2]: 0.3148 | logFC CLEC5A expression [2]: 0.3833 | logFC CXCL1 expression [2]: 0.6909 | logFC CXCL2 expression [2]: 1.093 | logFC CXCL3 expression [2]: 1.101 | logFC CXCL5 expression [2]: 1.338 | logFC CXCL6 expression [2]: 0.6535 | logFC IL1A expression [2]: 0.6367 | logFC IL1B expression [2]: 0.6345 | logFC IL6 expression [2]: 0.7014 | logFC IL8 expression [2]: 0.6411 | logFC IL23A expression [2]: 0.4628 | logFC IL24 expression [2]: 0.5768 | logFC PLAUR expression [2]: 0.5031 | logFC PPBP expression [2]: 0.683 | logFC PTGS2 expression [2]: 0.6892 | logFC SLC11A1 expression [2]: 0.7022 | logFC TBX21 expression [2]: −0.1238 | logFC THBS1 expression [2]: 0.8703
